Reference: patent publication US11986480B2, “Heterocyclic compound” (TOHOKU UNIVERSITY, priority 2017, dated 2024)

How the values were obtained:
[1] = target: T1, Brd4 (Homo sapiens, UniProt O60885); experiment: Test Example 3: HeLa cells, Western blot Brd4/actin (Testing Method C); format: cell-based; design: endogenous in cells; host or cells: HeLa; details: 24 hours, 1 or less = degradation promoted
Procedure: (§1) Test Example 3: Evaluation Using HeLa Cell (Testing Method C)
(§2) HeLa cells were inoculated to Dulbecco's Modified Eagle Medium (DMEM) and cultured for 24 hours. A test compound (specifically, compounds of Examples 47 to 52, 59 and 60) was added thereto at the final concentration shown in Table 2, followed by incubation for 24 hours under conditions of 37° C./5% CO2. The cells were washed with PBS three times and treated with a cell lysis solution containing a proteolytic enzyme inhibitor to obtain a cell extract. The cell extract was subjected to SDS-PAGE. After the electrophoresis, Brd4, FKBP12 or MetAP2 and actin were detected by Western blot. The ratio of the Brd4, FKBP12 or MetAP2/actin value of the drug-treated cells to the Brd4, FKBP12 or MetAP2/actin value of a control group in drug-untreated cells was regarded as an activity value. A value of 1 or less represents that degradation of Brd4, FKBP12 or MetAP2 was promoted.

[2] = target: T1, Brd4; experiment: Test Example 4: A549 cells, Western blot Brd4/actin (Testing Method D); format: cell-based; design: endogenous in cells; details: BRD4, 1 uM, 24 hours, 1 or less = degradation promoted
Procedure: Test Example 4: Evaluation Using A549 Cell (Testing Method D)
as §2, with “A549” for “HeLa”, “57” for “47 to 52, 59”, “58)” for “60)”, “Brd4” for “Brd4, FKBP12 or MetAP2”, “Brd4/actin” for “Brd4, FKBP12 or MetAP2/actin”

[3] = target: T2, FKBP12 (Homo sapiens, UniProt P62942); experiment: Test Example 3: HeLa cells, Western blot FKBP12/actin (Testing Method C); format: cell-based; details: FKBP12, 1 uM, 24 hours, 1 or less = degradation promoted
T2 construct: endogenous in cells; host or cells: HeLa
Procedure: as §1, §2

[4] = tested on: EmGFP-HaloTag; experiment: Test Example 5: Atg5+/+ MEF cells overexpressing EmGFP-HaloTag, Western blot GFP/actin; format: cell-based, mouse; details: Atg5 WT MEF, 10 μM
Procedure: (§3) Test Example 5: Evaluation Using Atg5KO MEF
(§4) Atg5^−/− mouse embryonic fibroblast (MEF) cells or Atg5^+/+ MEF cells were inoculated to Dulbecco's Modified Eagle Medium (DMEM) and cultured for 24 hours. Cells overexpressing EmGFP-HaloTag were obtained by transfection with a plasmid pCMV-EmGFP-HaloTag (SEQ ID NO: 1) encoding EmGFP-HaloTag. On the next day, the compound of Example 56 was added thereto at a final concentration of 10 μM, followed by incubation for 24 hours under conditions of 37° C./5% CO2. The cells were washed with PBS three times and treated with a cell lysis solution containing a proteolytic enzyme inhibitor to obtain a cell extract. The cell extract was subjected to SDS-PAGE. After the electrophoresis, GFP and actin were detected by Western blot. The ratio of the GFP/actin value of the drug-treated cells to the GFP/actin value of a control group in drug-untreated cells was regarded as an activity value. A value of 1 or less represents that degradation of EmGFP-HaloTag was promoted.

[5] = tested on: EmGFP-HaloTag; experiment: Test Example 5: Atg5-/- MEF cells overexpressing EmGFP-HaloTag, Western blot GFP/actin; format: cell-based, mouse; details: Atg5 KO MEF, 10 μM
Procedure: as §3, §4

[6] = tested on: EmGFP-HaloTag; experiment: Test Example 1: HeLa cells stably expressing EmGFP-HaloTag, Western blot GFP/actin (Testing Method A); format: cell-based; details: 10 uM, 24 hours, 1 or less = degradation promoted
Procedure: Test Example 1: Evaluation Method Using Cell Stably Expressing EmGFP-HaloTag (Testing Method A)
HeLa cells stably expressing EmGFP-HaloTag were inoculated to Dulbecco's Modified Eagle Medium (DMEM) and cultured for 24 hours. Then, a test compound (specifically, compounds of Examples 1 to 7, 9 to 11, 13 to 15, 17 to 20, 24 to 27, 29, 32 to 33, 36 to 42, 44 to 46 and 56) was added thereto at the final concentration shown in Table 2, followed by incubation for 24 hours under conditions of 37° C./5% CO2. The cells were washed with PBS three times and treated with a cell lysis solution containing a proteolytic enzyme inhibitor to obtain a cell extract. The cell extract was subjected to SDS-PAGE. After the electrophoresis, GFP and actin were detected by Western blot. The ratio of the GFP/actin value of the drug-treated cells to the GFP/actin value of a control group in drug-untreated cells was regarded as an activity value. A value of 1 or less represents that degradation of EmGFP-HaloTag was promoted.

T2 sequence (P62942 whole entry): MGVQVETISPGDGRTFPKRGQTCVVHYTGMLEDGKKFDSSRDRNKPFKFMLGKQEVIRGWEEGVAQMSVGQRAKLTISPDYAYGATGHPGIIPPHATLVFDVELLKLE

SMILES: Cc1sc2c(c1C)C(c1ccc(Cl)cc1)=N[C@@H](CC(=O)NCCOCCOCCOCCNC(=O)c1nc3c(=O)[nH]c(N)nc3n1Cc1ccc(F)cc1)c1nnc(C)n1-2 [Example 47, 2-Amino-N-(14-((6S)-4-(4-chlorophenyl)-2,3,9-trimethyl-6H-thieno[3,2-f][1,2,4]triazolo[4,3-a][1,4]diazepin-6-yl)-13-oxo-3,6,9-trioxa-12-azatetradec-1-yl)-9-(4-fluorobenzyl)-6-oxo-6,9-dihydro-1H-purine-8-carboxamide]
- Activity value (Brd4/actin of drug-treated cells relative to drug-untreated control) ([1]; BRD4, 1 uM): 0.4

SMILES: CC(=O)N[C@@H](CSc1nc2c(=O)[nH]c(N)nc2n1Cc1ccc(F)cc1)C(=O)NCCOCCOCCOCCNC(=O)C[C@@H]1N=C(c2ccc(Cl)cc2)c2c(sc(C)c2C)-n2c(C)nnc21 [Example 51, N^2-Acetyl-S-(2-amino-9-(4-fluorobenzyl)-6-oxo-6,9-dihydro-1H-purin-8-yl)-N-(14-((6S)-4-(4-chlorophenyl)-2,3,9-trimethyl-6H-thieno[3,2-f][1,2,4]triazolo[4,3-a][1,4]diazepin-6-yl)-13-oxo-3,6,9-trioxa-12-azatetradec-1-yl)-L-cysteinamide]
- Activity value (Brd4/actin of drug-treated cells relative to drug-untreated control) ([1]; BRD4, 1 uM): 0.6

SMILES: CC(=O)N[C@@H](CSc1nc2c(=O)[nH]c(N)nc2n1Cc1ccc(C)cc1)C(=O)NCCOCCOCCOCCNC(=O)C[C@@H]1N=C(c2ccc(Cl)cc2)c2c(sc(C)c2C)-n2c(C)nnc21 [Example 49, N^2-Acetyl-S-(2-amino-9-(4-methylbenzyl)-6-oxo-6,9-dihydro-1H-purin-8-yl)-N-(14-((6S)-4-(4-chlorophenyl)-2,3,9-trimethyl-6H-thieno[3,2-f][1,2,4]triazolo[4,3-a][1,4]diazepin-6-yl)-13-oxo-3,6,9-trioxa-12-azatetradec-1-yl)-L-cysteinamide]
- Activity value (Brd4/actin of drug-treated cells relative to drug-untreated control) ([1]; BRD4, 1 uM): 0.8

SMILES: Cc1sc2c(c1C)C(c1ccc(Cl)cc1)=N[C@@H](CC(=O)NCCOCCOCCOCCNC(=O)c1cccc(-c3nc4c(=O)[nH]c(N)nc4n3Cc3ccc(F)cc3)c1)c1nnc(C)n1-2 [Example 48, 3-(2-Amino-9-(4-fluorobenzyl)-6-oxo-6,9-dihydro-1H-purin-8-yl)-N-(14-((6S)-4-(4-chlorophenyl)-2,3,9-trimethyl-6H-thieno[3,2-f][1,2,4]triazolo[4,3-a][1,4]diazepin-6-yl)-13-oxo-3,6,9-trioxa-12-azatetradec-1-yl)benzamide]
- Activity value (Brd4/actin of drug-treated cells relative to drug-untreated control) ([1]; BRD4, 10 uM): 0.8

SMILES: Cc1sc2c(c1C)C(c1ccc(Cl)cc1)=N[C@@H](CC(=O)NCCCOCCOCCOCCCNc1nc3c(=O)[nH]c(N)nc3n1Cc1ccc(F)cc1)c1nnc(C)n1-2 [Example 58, N-(3-(2-(2-(3-((2-Amino-9-(4-fluorobenzyl)-6-oxo-6,9-dihydro-1H-purin-8-yl)amino)propoxy)ethoxy)ethoxy)propyl)-2-((6S)-4-(4-chlorophenyl)-2,3,9-trimethyl-6H-thieno[3,2-f][1,2,4]triazolo[4,3-a][1,4]diazepin-6-yl)acetamide]
- Activity value (Brd4/actin of drug-treated cells relative to drug-untreated control) [2]: 0.8

SMILES: CC(=O)N[C@@H](CSc1nc2c(=O)[nH]c(N)nc2n1Cc1ccc(Cl)cc1)C(=O)NCCOCCOCCOCCNC(=O)C[C@@H]1N=C(c2ccc(Cl)cc2)c2c(sc(C)c2C)-n2c(C)nnc21 [Example 50, N^2-Acetyl-S-(2-amino-9-(4-chlorobenzyl)-6-oxo-6,9-dihydro-1H-purin-8-yl)-N-(14-((6S)-4-(4-chlorophenyl)-2,3,9-trimethyl-6H-thieno[3,2-f][1,2,4]triazolo[4,3-a][1,4]diazepin-6-yl)-13-oxo-3,6,9-trioxa-12-azatetradec-1-yl)-L-cysteinamide]
- Activity value (Brd4/actin of drug-treated cells relative to drug-untreated control) ([1]; BRD4, 1 uM): 0.2

SMILES: CCC(C)(C)C(=O)C(=O)N1CCCCC1C(=O)O[C@H](CCc1ccc(OC)c(OC)c1)c1cccc(NC(=O)CCC(=O)NCCCOCCOCCOCCCNC(=O)[C@H](CSc2nc3c(=O)[nH]c(N)nc3n2Cc2ccc(F)cc2)NC(C)=O)c1 (stereo partly drawn) [Example 59, (1R)-1-(3-((18-((N-Acetyl-S-(2-amino-9-(4-fluorobenzyl)-6-oxo-6,9-dihydro-1H-purin-8-yl)-L-cysteinyl)amino)-4-oxo-9,12,15-trioxa-5-azaoctadecan-1-oyl)amino)phenyl)-3-(3,4-dimethoxyphenyl)propyl 1-(3,3-dimethyl-2-oxopentanoyl)piperidine-2-carboxylate]
- Activity value (FKBP12/actin of drug-treated cells relative to drug-untreated control) [3]: 0.5

SMILES: CC(=O)N[C@@H](CSc1nc2c(=O)[nH]c(N)nc2n1Cc1ccc(F)cc1)C(=O)NCCOCCOCCOCCOCCOCCCCCCCl [Example 56, N^2-Acetyl-S-(2-amino-9-(4-fluorobenzyl)-6-oxo-6,9-dihydro-1H-purin-8-yl)-N-(21-chloro-3,6,9,12,15-pentaoxahenicos-1-yl)-L-cysteinamide]
- Activity value (GFP/actin of drug-treated cells relative to drug-untreated control) ([4]; 0h): 1.0
- Activity value (GFP/actin of drug-treated cells relative to drug-untreated control) ([4]; 24 h): 0.3
- Activity value (GFP/actin of drug-treated cells relative to drug-untreated control) ([5]; 0h): 1.0
- Activity value (GFP/actin of drug-treated cells relative to drug-untreated control) ([5]; 24 h): 1.1
- Activity value (GFP/actin of drug-treated cells relative to drug-untreated control) [6]: 0.55

SMILES: Cc1sc2c(c1C)C(c1ccc(Cl)cc1)=N[C@@H](CC(=O)NCCOCCOCCOCCNC(=O)/C=C/c1nc3c(=O)[nH]c(N)nc3n1Cc1ccc(F)cc1)c1nnc(C)n1-2 [Example 52, (2E)-3-(2-Amino-9-(4-fluorobenzyl)-6-oxo-6,9-dihydro-1H-purin-8-yl)-N-(14-((6S)-4-(4-chlorophenyl)-2,3,9-trimethyl-6H-thieno[3,2-f][1,2,4]triazolo[4,3-a][1,4]diazepin-6-yl)-13-oxo-3,6,9-trioxa-12-azatetradec-1-yl)acrylamide]
- Activity value (Brd4/actin of drug-treated cells relative to drug-untreated control) ([1]; BRD4, 10 uM): 0.8

SMILES: CC(=O)N[C@@H](CSc1nc2c(=O)[nH]c(N)nc2n1Cc1ccc(F)cc1)C(=O)NCCCOCCOCCOCCCNC(=O)C[C@@H]1N=C(c2ccc(Cl)cc2)c2c(sc(C)c2C)-n2c(C)nnc21 [Example 57, N^2-Acetyl-S-(2-amino-9-(4-fluorobenzyl)-6-oxo-6,9-dihydro-1H-purin-8-yl)-N-(1-((6S)-4-(4-chlorophenyl)-2,3,9-trimethyl-6H-thieno[3,2-f][1,2,4]triazolo[4,3-a][1,4]diazepin-6-yl)-2-oxo-7,10,13-trioxa-3-azahexadecan-16-yl)-L-cysteinamide]
- Activity value (Brd4/actin of drug-treated cells relative to drug-untreated control) [2]: 0.9
